# Measurements as given in the supplement of paper PMC10307832.
# What was measured:
# Experiment in all cases: relative viability (nuclei count vs DMSO), 5 days (fraction); higher = more cells survive
# [1] = test system: NCI-H2228
# How it was run: (§1)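 A single step with final 0.05% Triton X-100, 1% formaldehyde and 1 ug/ml Hoechst fixed the cells and stained nuclei 5 days after treatment. Lung cancer cell lines in 1536-well plates had been treated by pin tool the day after seeding with one drug alone or a fixed anchor-drug dose plus five library-drug doses (not always all listed) in √10 steps, and nuclei were counted on 4× images. Relative viability is the ratio of nuclei in treated wells to nuclei in vehicle wells, taken as the median of duplicate plates.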
# [2] = test system: RERF-LC-KJ
# How it was run: as §1
# [3] = test system: A-427
# How it was run: as §1
# [4] = test system: SK-MES-1
# How it was run: as §1
# [5] = test system: NCI-H23
# How it was run: as §1
# [6] = test system: LCLC-103H
# How it was run: as §1
# [7] = test system: NCI-H1734
# How it was run: as §1
# [8] = test system: LC-2-ad
# How it was run: as §1
# [9] = test system: NCI-H1993
# How it was run: as §1
# [10] = test system: NCI-H1355
# How it was run: as §1
# [11] = test system: SW 1573
# How it was run: as §1
# [12] = test system: NCI-H650
# How it was run: as §1
# [13] = test system: HCC-827
# How it was run: as §1
# [14] = test system: NCI-H1755
# How it was run: as §1
# [15] = test system: SK-LU-1
# How it was run: as §1
# [16] = test system: NCI-H2347
# How it was run: as §1
# [17] = test system: NCI-H2342
# How it was run: as §1
# [18] = test system: NCI-H1792
# How it was run: as §1
# [19] = test system: UMC-11
# How it was run: as §1
# [20] = test system: NCI-H1915
# How it was run: as §1
# [21] = test system: NCI-H2170
# How it was run: as §1
# [22] = test system: NCI-H1975
# How it was run: as §1
structure (smiles),measurement,setting,value
Cc1csc(=NC2CCCCC2)n1/N=C/c1ccc(O)c(O)c1O [MIM1] + CCNC(=O)c1noc(-c2cc(C(C)C)c(O)cc2O)c1-c1ccc(CN2CCOCC2)cc1 [Luminespib] (partner 0.01 µM),relative viability,[1]; first compound 0.2 µM,0.18
same,relative viability,[1]; first compound 0.6325 µM,0.155
same,relative viability,[1]; first compound 2 µM,0.181
same,relative viability,[1]; first compound 6.325 µM,0.151
same,relative viability,[1]; first compound 20 µM,0.111
same,relative viability,[2]; first compound 0.2 µM,1.21
same,relative viability,[2]; first compound 0.6325 µM,1.26
same,relative viability,[2]; first compound 2 µM,0.73
same,relative viability,[2]; first compound 6.325 µM,0.416
same,relative viability,[2]; first compound 20 µM,0.284
same,relative viability,[3]; first compound 0.2 µM,0.832
same,relative viability,[3]; first compound 0.6325 µM,1.06
same,relative viability,[3]; first compound 2 µM,0.955
same,relative viability,[3]; first compound 6.325 µM,0.747
same,relative viability,[3]; first compound 20 µM,0.267
same,relative viability,[4]; first compound 0.2 µM,0.754
same,relative viability,[4]; first compound 0.6325 µM,0.828
same,relative viability,[4]; first compound 2 µM,0.708
same,relative viability,[4]; first compound 6.325 µM,0.55
same,relative viability,[4]; first compound 20 µM,0.215
same,relative viability,[5]; first compound 0.2 µM,0.262
same,relative viability,[5]; first compound 0.6325 µM,0.208
same,relative viability,[5]; first compound 6.325 µM,0.198
same,relative viability,[5]; first compound 20 µM,0.211
same,relative viability,[6]; first compound 0.2 µM,1.03
same,relative viability,[6]; first compound 0.6325 µM,0.908
same,relative viability,[6]; first compound 2 µM,0.908
same,relative viability,[6]; first compound 6.325 µM,0.632
same,relative viability,[6]; first compound 20 µM,0.419
same,relative viability,[7]; first compound 0.2 µM,0.0909
same,relative viability,[7]; first compound 0.6325 µM,0.233
same,relative viability,[7]; first compound 2 µM,0.198
same,relative viability,[7]; first compound 6.325 µM,0.168
same,relative viability,[7]; first compound 20 µM,0.157
same,relative viability,[8]; first compound 0.2 µM,1.06
same,relative viability,[8]; first compound 0.6325 µM,0.964
same,relative viability,[8]; first compound 2 µM,0.727
same,relative viability,[8]; first compound 6.325 µM,0.485
same,relative viability,[8]; first compound 20 µM,0.233
same,relative viability,[9]; first compound 0.2 µM,0.441
same,relative viability,[9]; first compound 0.6325 µM,0.663
same,relative viability,[9]; first compound 2 µM,0.652
same,relative viability,[9]; first compound 6.325 µM,0.633
same,relative viability,[9]; first compound 20 µM,0.499
same,relative viability,[10]; first compound 0.2 µM,0.698
same,relative viability,[10]; first compound 0.6325 µM,0.591
same,relative viability,[10]; first compound 2 µM,0.726
same,relative viability,[10]; first compound 6.325 µM,0.659
same,relative viability,[10]; first compound 20 µM,0.391
same,relative viability,[11]; first compound 0.2 µM,0.22
same,relative viability,[11]; first compound 0.6325 µM,0.318
same,relative viability,[11]; first compound 2 µM,0.194
same,relative viability,[11]; first compound 6.325 µM,0.143
same,relative viability,[11]; first compound 20 µM,0.069
same,relative viability,[12]; first compound 0.2 µM,0.822
same,relative viability,[12]; first compound 0.6325 µM,0.619
same,relative viability,[12]; first compound 2 µM,0.85
same,relative viability,[12]; first compound 6.325 µM,0.704
same,relative viability,[12]; first compound 20 µM,0.288
same,relative viability,[13]; first compound 0.2 µM,0.517
same,relative viability,[13]; first compound 0.6325 µM,0.384
same,relative viability,[13]; first compound 2 µM,0.698
same,relative viability,[13]; first compound 6.325 µM,0.371
same,relative viability,[13]; first compound 20 µM,0.184
same,relative viability,[14]; first compound 0.2 µM,0.455
same,relative viability,[14]; first compound 0.6325 µM,0.51
same,relative viability,[14]; first compound 2 µM,0.703
same,relative viability,[14]; first compound 6.325 µM,0.459
same,relative viability,[14]; first compound 20 µM,0.414
same,relative viability,[15]; first compound 0.2 µM,0.178
same,relative viability,[15]; first compound 0.6325 µM,0.21
same,relative viability,[15]; first compound 2 µM,0.181
same,relative viability,[15]; first compound 6.325 µM,0.196
same,relative viability,[15]; first compound 20 µM,0.227
same,relative viability,[16]; first compound 0.2 µM,0.496
same,relative viability,[16]; first compound 0.6325 µM,0.403
same,relative viability,[16]; first compound 2 µM,0.236
same,relative viability,[16]; first compound 6.325 µM,0.346
same,relative viability,[16]; first compound 20 µM,0.334
same,relative viability,[17]; first compound 0.2 µM,0.739
same,relative viability,[17]; first compound 0.6325 µM,0.723
same,relative viability,[17]; first compound 2 µM,0.642
same,relative viability,[17]; first compound 6.325 µM,0.624
same,relative viability,[17]; first compound 20 µM,0.985
same,relative viability,[18]; first compound 0.2 µM,0.449
same,relative viability,[18]; first compound 0.6325 µM,0.43
same,relative viability,[18]; first compound 2 µM,0.5
same,relative viability,[18]; first compound 6.325 µM,0.398
same,relative viability,[18]; first compound 20 µM,0.396
same,relative viability,[19]; first compound 0.2 µM,1.03
same,relative viability,[19]; first compound 2 µM,1.23
same,relative viability,[19]; first compound 6.325 µM,0.686
same,relative viability,[19]; first compound 20 µM,0.369
same,relative viability,[20]; first compound 0.2 µM,0.743
same,relative viability,[20]; first compound 0.6325 µM,0.641
same,relative viability,[20]; first compound 2 µM,0.685
same,relative viability,[20]; first compound 6.325 µM,0.579
same,relative viability,[20]; first compound 20 µM,0.183
same,relative viability,[21]; first compound 0.2 µM,0.707
same,relative viability,[21]; first compound 0.6325 µM,0.497
same,relative viability,[21]; first compound 2 µM,0.729
same,relative viability,[21]; first compound 6.325 µM,0.473
same,relative viability,[21]; first compound 20 µM,0.434
same,relative viability,[22]; first compound 0.2 µM,0.202
same,relative viability,[22]; first compound 0.6325 µM,0.261
same,relative viability,[22]; first compound 2 µM,0.193
same,relative viability,[22]; first compound 6.325 µM,0.279
same,relative viability,[22]; first compound 20 µM,0.136
